# Reference: patent publication US8754075B2, “1,3-oxazines as BACE1 and/or BACE2 inhibitors” (Hoffmann-La Roche Inc., priority 2011, dated 2014)
# Legend:
# BACE1 = BACE1 (Homo sapiens (Human), UniProt P56817); assay: Cellular Aβ-lowering assay; type: cell-based; conditions: HEK293 cells stably expressing human APP wt (APP695); Aβ40 in supernatant by ELISA after 18-20 hrs
# Description: Cellular Aβ-Lowering Assay: Human HEK293 cells which are stably transfected with a vector expressing a cDNA of the human APP wt gene (APP695) were used to assess the potency of the compounds in a cellular assay. The cells were seeded in 96-well microtiter plates in cell culture medium (Iscove, plus 10% (v/v) fetal bovine serum, glutamine, penicillin/streptomycin) to about 80% confluence and the compounds were added at a 10× concentration in 1/10 volume of medium without FCS containing 8% DMSO (final concentration of DMSO was kept at 0.8% v/v). After 18-20 hrs incubation at 37° C. and 5% CO2 in a humidified incubator the culture supernatant was harvested for the determination of Aβ40 concentrations. […] After blocking of non-specific binding sites with e.g. 1% BSA and washing, the culture supernatants were added in suitable dilutions together with a horseradish peroxidase-coupled Aβ detection antibody (e.g., antibody 4G8, Senetek, Maryland Heights, Mo.) and incubated for 5 to 7 hrs. Subsequently the wells of the microtiter plate were washed extensively with Tris-buffered saline containing 0.05% Tween 20 and the assay was developed with tetramethylbenzidine/H2O2 in citric acid buffer. After stopping the reaction with one volume […] the reaction was measured in an ELISA reader at 450 nm wavelength. The concentrations of Aβ in the culture supernatants were calculated from a standard curve obtained with known amounts of pure Aβ peptide.
# BACE2 = BACE2 (Rattus norvegicus (Rat), UniProt Q6IE75); assay: Assay for BACE inhibition by measuring cellular TMEM27 cleavage; type: cell-based; conditions: INS-TMEM27 (INS1e rat cell line, inducible hTMEM27); shed TMEM27 by ELISA
# Sequence of BACE2 (Q6IE75 63-514): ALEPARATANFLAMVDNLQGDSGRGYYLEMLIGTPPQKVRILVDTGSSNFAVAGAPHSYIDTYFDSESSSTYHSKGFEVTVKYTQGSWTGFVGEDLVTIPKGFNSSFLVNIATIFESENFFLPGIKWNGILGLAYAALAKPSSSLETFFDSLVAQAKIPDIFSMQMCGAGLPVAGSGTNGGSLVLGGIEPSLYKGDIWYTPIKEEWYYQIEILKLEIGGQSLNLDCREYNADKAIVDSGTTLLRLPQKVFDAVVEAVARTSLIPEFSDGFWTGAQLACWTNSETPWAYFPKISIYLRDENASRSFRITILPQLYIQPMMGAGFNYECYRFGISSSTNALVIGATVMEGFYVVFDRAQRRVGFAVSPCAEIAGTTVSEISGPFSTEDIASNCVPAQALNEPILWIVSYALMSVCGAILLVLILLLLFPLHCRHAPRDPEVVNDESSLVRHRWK
# Source text: Assay for BACE Inhibition by Measuring Cellular TMEM27 Cleavage:
# The assay uses the principle of inhibition of human TMEM27 cleavage by endogenous cellular BACE2 in the Ins1e rat cell line and shedding from the cell surface into the culture medium, followed by detection in an ELISA assay Inhibition of BACE2 prevents the cleavage and shedding in a dose-dependent manner.
# The stable cell line “INS-TMEM27” represents an INS1e-derived cell line with inducible expression (using the TetOn system) of full-length hTMEM27 in a doxycycline-dependent manner. The cells are cultured throughout the experiment in RPMI1640+Glutamax (Invitrogen) Penicillin/Streptomycin, 10% Fetal bovine serum, […], […], 100 micrograms/ml G418 and 100 microgram/ml hygromycin and are grown inadherent culture at 37° C. in a standard CO2 cell culture incubator.
# INS-TMEM27 cells are seeded in 96-well plates. After 2 days in culture, BACE2 inhibitor is added in a range of concentrations as required by the assay and after a further two hours, doxycycline is added to a final concentration of 500 ng/ml. The cells are incubated for a further 46 hours and the supernatant harvested for detection of shed TMEM27.
# An ELISA assay (using a pair of mouse anti-human-TMEM27 antibodies, raised against the extracellular domain of TMEM27) is used for detection of TMEM27 in the culture medium. An EC50 for BACE2 inhibition is calculated using the ELISA readout for each inhibitor concentration with standard curve-fitting software such as XLFit for the Excel spreadsheet program.
# Sequence of BACE1 (P56817 46-501): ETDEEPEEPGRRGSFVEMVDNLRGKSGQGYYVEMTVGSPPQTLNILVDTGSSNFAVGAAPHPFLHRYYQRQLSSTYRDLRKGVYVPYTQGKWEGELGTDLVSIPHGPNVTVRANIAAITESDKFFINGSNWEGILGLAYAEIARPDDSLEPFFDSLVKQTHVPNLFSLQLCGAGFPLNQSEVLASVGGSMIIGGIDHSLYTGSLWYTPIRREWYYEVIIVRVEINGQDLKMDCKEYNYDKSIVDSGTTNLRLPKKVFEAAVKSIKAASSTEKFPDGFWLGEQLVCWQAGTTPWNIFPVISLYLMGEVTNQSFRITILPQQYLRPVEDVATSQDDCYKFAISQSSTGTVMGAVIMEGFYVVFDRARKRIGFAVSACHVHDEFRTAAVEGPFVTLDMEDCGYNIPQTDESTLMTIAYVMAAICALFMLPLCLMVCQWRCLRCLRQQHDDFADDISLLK
Compound,IC50 (BACE1),IC50 (BACE2)
"Cn1nc(C(F)(F)F)cc1C(=O)Nc1ccc(F)c([C@@]2(C)N=C(N)OC[C@@H]2F)c1 [Example 27, 2-Methyl-5-trifluoromethyl-2H-pyrazole-3-carboxylic acid [3-((4R,5R)-2-amino-5-fluoro-4-methyl-5,6-dihydro-4H-[1,3]oxazin-4-yl)-4-fluoro-phenyl]-amide]",90 nM,709 nM
"C[C@]1(c2cc(NC(=O)c3n[nH]cc3Cl)ccc2F)N=C(N)OC[C@@H]1F [Example 28, 4-Chloro-1H-pyrazole-3-carboxylic acid [3-((4R,5R)-2-amino-5-fluoro-4-methyl-5,6-dihydro-4H-[1,3]oxazin-4-yl)-4-fluoro-phenyl]-amide]",130 nM,35 nM
"C[C@]1(c2cc(NC(=O)c3ncc(C#N)cc3Cl)ccc2F)N=C(N)OC[C@H]1F [Example 35, 3-Chloro-5-cyano-pyridine-2-carboxylic acid [3-((4R,5S)-2-amino-5-fluoro-4-methyl-5,6-dihydro-4H-[1,3]oxazin-4-yl)-4-fluoro-phenyl]-amide]",82 nM,511 nM
"C[C@]1(c2cc(NC(=O)c3ncc(C(F)(F)F)cc3Cl)ccc2F)N=C(N)OC[C@H]1F [Example 36, 3-Chloro-5-trifluoromethyl-pyridine-2-carboxylic acid [3-((4R,5S)-2-amino-5-fluoro-4-methyl-5,6-dihydro-4H-[1,3]oxazin-4-yl)-4-fluoro-phenyl]-amide]",140 nM,4030 nM
"C[C@]1(F)COC(N)=N[C@]1(C)c1cc(NC(=O)c2ncccc2OCC(F)(F)F)ccc1F [Example 37, 3-(2,2,2-Trifluoro-ethoxy)-pyridine-2-carboxylic acid [3-((4R,5R)-2-amino-5-fluoro-4,5-dimethyl-5,6-dihydro-4H-[1,3]oxazin-4-yl)-4-fluoro-phenyl]-amide]",22 nM,226 nM
"C[C@]1(F)COC(N)=N[C@]1(C)c1cc(NC(=O)c2ccc(C#N)cn2)ccc1F [Example 38, 5-Cyano-pyridine-2-carboxylic acid [3-((4R,5R)-2-amino-5-fluoro-4,5-dimethyl-5,6-dihydro-4H-[1,3]oxazin-4-yl)-4-fluoro-phenyl]-amide]",0.4 nM,23 nM
"C[C@]1(F)COC(N)=N[C@]1(C)c1cc(NC(=O)c2ncc(Cl)cc2Cl)ccc1F [Example 39, 3,5-Dichloro-pyridine-2-carboxylic acid [3-((4R,5R)-2-amino-5-fluoro-4,5-dimethyl-5,6-dihydro-4H-[1,3]oxazin-4-yl)-4-fluoro-phenyl]-amide]",2 nM,4 nM
"C[C@]1(F)COC(N)=N[C@]1(C)c1cc(NC(=O)c2nn(C(F)F)cc2Cl)ccc1F [Example 40, 4-Chloro-1-difluoromethyl-1H-pyrazole-3-carboxylic acid [3-((4R,5R)-2-amino-5-fluoro-4,5-dimethyl-5,6-dihydro-4H-[1,3]oxazin-4-yl)-4-fluoro-phenyl]amide]",2 nM,31 nM
"C[C@]1(F)COC(N)=N[C@]1(C)c1cc(NC(=O)c2ccc(Cl)cn2)ccc1F [Example 41, 5-Chloro-pyridine-2-carboxylic acid [3-((4R,5R)-2-amino-5-fluoro-4,5-dimethyl-5,6-dihydro-4H-[1,3]oxazin-4-yl)-4-fluoro-phenyl]-amide]",3 nM,6 nM
"C[C@]1(F)COC(N)=N[C@]1(C)c1cc(NC(=O)c2ccc(F)cn2)ccc1F [Example 42, 5-Fluoro-pyridine-2-carboxylic acid [3-((4R,5R)-2-amino-5-fluoro-4,5-dimethyl-5,6-dihydro-4H-[1,3]oxazin-4-yl)-4-fluoro-phenyl]-amide]",11 nM,74 nM
"C[C@]1(F)COC(N)=N[C@]1(C)c1cc(NC(=O)c2nn(CC(F)F)cc2Cl)ccc1F [Example 43, 4-Chloro-1-(2,2-difluoro-ethyl)-1H-pyrazole-3-carboxylic acid [3-((4R,5R)-2-amino-5-fluoro-4,5-dimethyl-5,6-dihydro-4H-[1,3]oxazin-4-yl)-4-fluoro-phenyl]amide]",183 nM,110 nM
"C[C@]1(F)COC(N)=N[C@]1(C)c1cc(NC(=O)C2CC2(F)F)ccc1F (stereo partly drawn) [Example 44, 2,2-Difluoro-cyclopropanecarboxylic acid [3-((4R,5R)-2-amino-5-fluoro-4,5-dimethyl-5,6-dihydro-4H-[1,3]oxazin-4-yl)-4-fluoro-phenyl]-amide]",32 nM,140 nM
"C[C@]1(c2cc(NC(=O)c3ccc(Cl)cn3)ccc2F)N=C(N)OC[C@@H]1OCC(F)(F)F [Example 45, 5-Chloro-pyridine-2-carboxylic acid {3-[(4R,5R)-2-amino-4-methyl-5-(2,2,2-trifluoro-ethoxy)-5,6-dihydro-4H-[1,3]oxazin-4-yl]-4-fluoro-phenyl}-amide]",1 nM,61 nM
"C[C@]1(c2cc(NC(=O)c3ccc(F)cn3)ccc2F)N=C(N)OC[C@@H]1OCC(F)(F)F [Example 46, 5-Fluoro-pyridine-2-carboxylic acid {3-[(4R,5R)-2-amino-4-methyl-5-(2,2,2-trifluoro-ethoxy)-5,6-dihydro-4H-[1,3]oxazin-4-yl]-4-fluoro-phenyl}-amide]",2 nM,65 nM
"C[C@]1(c2cc(NC(=O)c3ccc(C#N)cn3)ccc2F)N=C(N)OC[C@@H]1OCC(F)(F)F [Example 47, 5-Cyano-pyridine-2-carboxylic acid {3-[(4R,5R)-2-amino-4-methyl-5-(2,2,2-trifluoro-ethoxy)-5,6-dihydro-4H-[1,3]oxazin-4-yl]-4-fluoro-phenyl}-amide]",1 nM,268 nM
"C[C@]1(c2cc(NC(=O)c3ncc(Cl)cc3Cl)ccc2F)N=C(N)OC[C@@H]1OCC(F)(F)F [Example 48, 3,5-Dichloro-pyridine-2-carboxylic acid {3-[(4R,5R)-2-amino-4-methyl-5-(2,2,2-trifluoro-ethoxy)-5,6-dihydro-4H-[1,3]oxazin-4-yl]-4-fluoro-phenyl}-amide]",3 nM,67 nM
